This note sets out measurements from US11660281B2, “Compositions and methods of treating or preventing fibrotic lung diseases” (YALE UNIVERSITY, priority 2017, dated 2023).

Assay [1] deals with bleomycin induced lung fibrosis. The assay is described as follows: bleomycin-induced established lung fibrosis in mice: fibrosis and Masson's Trichrome histology. The conditions noted are these: for collagen deposition in the interstitium, peribronchiolar, or perivascular space (Masson's Trichrome staining): days 10-18 after bleomycin, day 21 lung sections; for established fibrosis in bleomycin induced lung fibrosis: days 10-18 after intratracheal bleomycin 1.5 U/kg, sacrifice day 21. It counts as in vivo, mice (C57/BL6). The protocol:
(§1) C57B1/6, 9-12 weeks-old, female mice were purchased from Taconic Lab. Mice were anesthetized by placing them in a chamber having paper towels soaked with 40% isoflurane solution. 1.5 U/kg of bleomycin (Hospira, Ill.) or equivalent volume (50 μl) of 0.9% normal saline was administered intratracheally. To test therapeutic efficacy in bleomycin-induced established fibrosis intraperitoneal thyroid hormone receptor beta agonist (GC-1, 30 μg/kg) was administered at days 10, 12, 14, 16 and 18 following bleomycin-administration and mice were sacrificed at day 21. The lungs were harvested for fibrotic assays
Hydroxyproline: Lung hydroxyproline was analyzed with hydroxyproline colorimetric assay kit from Biovision (Milpitas, Calif.) following manufacturer's instruction.
Histology: Tissue sections (4 μm) were stained with Masson Trichrome (collagen/connective tissue), two slices per animal, and two animals per group.
FIG. 1 illustrates an experiment where mice with bleomycin-induced fibrosis were treated with GC-1 intraperitoneally. On Day 0, bleomycin was delivered intratracheally to the mice (1.5 U/kg). On days 10-18, the mice were administered 30 μg/kg of GC-1 (200 μl) or equivalent volume of vehicle (normal saline 0.9%).
9-12 weeks-old, C57/BL6 female mice were treated every other day intraperitoneally with thyroid hormone agonist GC-1 (30 μg/kg) or equivalent volume of empty vehicle (200 μl of normal saline 0.9%) at days 10-18, following intratracheal challenge with bleomycin (1.5 U/kg) or normal saline 0.9%. Mice were sacrificed at day 21. […] Data are expressed as mean hydroxyproline content per lung set (μg/gr lung)+SEM, n=8 mice/group, *p<0.05. FIGS. 2A-2D illustrate quantitative RT-PCR analysis of Col1a1, Col3a1, and FSP1 relative expression in the bleomycin model of lung fibrosis. Bars (means±SEM) are shown for the relative changes (fold) by setting the indicated control level to 1.0, *p<0.05. […]
9-12 weeks-old, C57/BL6 female mice were treated every other day orally by gavage with thyroid hormone receptor agonist GC-1 (5 mg/kg) or equivalent volume of empty vehicle (200 μl of normal saline 0.9%) at days 10-18 following intratracheal challenge with bleomycin (1.5 U/kg) or normal saline 0.9%. […] FIG. 5A: Hydroxyproline level in mice was assessed. Data are expressed as mean hydroxyproline content per lung set (μg/gr lung)+SEM, n=8 mice/group, *p<0.05. FIGS. 5B-5F illustrate quantitative RT-PCR analysis of Col1a1 (collagen, type I, alpha 1), Col3a1 (collagen, type III, alpha 1), FSP1 (fibroblast-specific protein 1), Acta (alpha-actin-2), and Ppargc1a (peroxisome proliferator-activated receptor gamma coactivator 1-alpha) relative expression in the bleomycin model of lung fibrosis. […]

For assay [2], the system named is Ppargc1a, Thra and Thrb expression in bleomycin induced mouse lungs. Nature of the assay: quantitative RT-PCR of relative gene expression in lungs, bleomycin model of lung fibrosis. In kind it is in vivo, mice (C57/BL6). The conditions noted are these: GC-1 30 μg/kg intraperitoneally every other day, days 10-18 after bleomycin; lungs at day 21; FIGS. 3A-3C. The protocol: as §1
qRT-PCR assay: Gene expression was determined by TaqMan® (Life Technologies, Thermo Scientific Inc. Rockford Ill., USA) according to manufacturer's instruction. β-glucuronidase (Gusb) was employed as an internal standard control and the specific primers and probes were all obtained from Life Technologies (Thermo Scientific Inc. Rockford Ill., USA). […]
9-12 weeks-old, C57/BL6 female mice were treated every other day intraperitoneally with thyroid hormone receptor beta agonist GC-1 (30 μg/kg) or equivalent volume of empty vehicle (200 μl of normal saline 0.9%) at days 10-18 following intratracheal challenge with bleomycin (1.5 U/kg) or normal saline 0.9%. […] FIGS. 3A-3C illustrate quantitative RT-PCR analysis of Ppargc1a, Thra and Thrb relative expression in the bleomycin model of lung fibrosis. […]

Structures are written as SMILES.

Regarding `Cc1cc(OCC(=O)O)cc(C)c1Cc1ccc(O)c(C(C)C)c1` [GC-1, 2-(4-(4-hydroxy-3-isopropylbenzyl)-3,5-dimethylphenoxy)acetic acid], the “collagen deposition in the interstitium, peribronchiolar, or perivascular space (Masson's Trichrome staining)” value in assay [1] (GC-1 30 μg/kg intraperitoneally every other day, FIG. 2E) is given as “significant decrease in collagen deposition”; in assay [1] (GC-1 5 mg/kg orally by gavage every other day) it was “significant decrease in collagen deposition”. Moreover, the “established fibrosis in bleomycin induced lung fibrosis” value in assay [1] (GC-1 30 μg/kg intraperitoneally every other day, FIGS. 2A-2E) is listed as “blunt established fibrosis”; in assay [1] (GC-1 5 mg/kg orally by gavage every other day, FIGS. 5A-5G), “blunt established fibrosis”. For the same compound, the “Ppargc1a relative expression (qRT-PCR)” value in assay [2] was “regulates expression”.
